Article PMC5838563, “Compounds producing an effective combinatorial regimen for disruption of HIV‐1 latency” (EMBO Molecular Medicine, 2017)
Like-named read-outs stand apart in the source and are kept apart here.

Key:
[1] = test system: latent HIV‐1 provirus in resting CD4^+ T cells from HIV‐1‐infected patients; assay: Supernatant HIV‐1 RNA from resting CD4+ T cells of patients (RT–qPCR); assay type: cell-based; details: 24 h
Method: For this analysis, we purified resting CD4^+ (rCD4^+) T lymphocytes from pools of patient samples by two‐step negative selection (Appendix Table S3). […] Purified rCD4^+ T cells were treated with 30 μM of each PH compound for 24 h, and RNA from the culture supernatants was analyzed by one‐step RT–qPCR, where results are presented as copy numbers of the virion/ml. […] Based on its capability for reactivating latent provirus at multiple chromosomal locations in cell lines, its negligible toxic effect, and that it produces the most robust reactivation of virus from patient samples, we focused our subsequent analysis on this compound (Table 1).
Figure 8 Effect of PH compounds on expression of HIV provirus in latently infected cells from patients Resting CD4^+ T cells purified from patient samples (n = 18, Appendix Table S3) were treated with 30 μM of each PH compound for 24 h, and HIV‐1 RNA was measured in culture supernatants. Results are presented as HIV virions/ml (mean ± SE). LOD indicates the limit of detection, 100 copies/ml culture supernatant. TEXT PRINTED IN THE PICTURE: PMA: Supernatant HIV-1 mRNA (Copies/ml): 308929.80 (50 nM) | PH01: Supernatant HIV-1 mRNA (Copies/ml): 5348.04 (Single Concentration (30μM)) | PH02: Supernatant HIV-1 mRNA (Copies/ml): 17624.53 (Single Concentration (30μM)) | PH03: Supernatant HIV-1 mRNA (Copies/ml): 4714.11 (Single Concentration (30μM)) | PH04: Supernatant HIV-1 mRNA (Copies/ml): 7134.68 (Single Concentration (30μM)) | PH05: Supernatant HIV-1 mRNA (Copies/ml): 587.19 (Single Concentration (30μM))
HIV‐1 RNA was measured from 1 × 10^6 resting CD4^+ T lymphocytes treated with 30 μM of each compound. Extracellular RNA was isolated using the ZR Viral RNA Kit (Zymo Research) and total cellular mRNA using the RNeasy MinElute cleanup kit (Qiagen). HIV‐1 RNA concentrations were assayed in one‐step RT–qPCRs using the iTaq™ universal SYBR Green one‐step kit (BIO‐RAD) with the HIV‐1 LTR‐specific primers, AGCCGCCTAGCATTTCATC and […]. RNA copy number was calculated using a standard curve generated from titrated infections with RGH‐PGK virus (Dahabieh et al, 2013). Reproducibility of RT–qPCR analysis was confirmed using a second set of primers within HIV‐1 p24 Gag, AGCAGCCATGCAAATGTTA, […]. HIV‐1 RNA determinations were normalized to GAPDH RNA measured using the primers […] and […].

[2] = test system: HIV‐1 LTR (Jurkat^Tat LTR‐luciferase cell line); assay: Jurkat^Tat LTR‐luciferase reporter assay for HIV‐1 latency reversal; assay type: cell-based; details: for EC50: Human immunodeficiency virus 1, 24 h treatment, percent activation relative to PMA; for latency‐reversing activity of PH02 analogs compared with PH02: 24 h, also in Jurkat^Tat LTR‐DsRed clones #11 and #131
Method: Activity of compounds identified for latency‐reversing activity in the primary screens was further validated by examining the effect of a single concentration (7 μM) on an alternative reporter cell line, bearing an integrated HIV‐1 reporter virus where luciferase expression is produced from the 5′ LTR, in cells constitutively expressing the viral TAT protein (Fig 2A), referred to as Jurkat^Tat LTR‐luciferase. Importantly, this cell line has the HIV‐1 reporter virus integrated at a different chromosomal location than that of the A1 J‐Lat cell line and also enables validation of provirus reactivation with a second enzymatic luciferase assay. In these assays, after 24‐h treatment we observed 10 compounds that produced significant induction of luciferase activity, including two compounds from the KD2 library, three from the CCBN library and five compounds from the DIVERSet. Compounds that produced significant effects in these secondary assays were re‐ordered from their respective suppliers and examined in more detail using the HIV‐luciferase reporter cell line. […] These five compounds represent diverse chemical structures (Fig 2G).
Figure 2 Concentration–response analysis for five selected PH compounds • A Schematic representation of the pTY‐LAI‐luciferase reporter virus used in secondary screening assays, where luciferase expression is under the control of the 5′ LTR, in cloned lines derived from Jurkat^TAT cells bearing single‐copy integrants. • B–F Luciferase activity was measured from reporter cells treated for 24 h with the indicated compound concentrations. Results are presented as percent activation relative to PMA‐treated controls. The EC50 for each compound is indicated. Mean and standard error (SE) for the results are determined from three biological replicates (n = 3) and technical duplicates. • G Illustration of chemical structures of the PH compounds.
Luciferase assays were performed in 96‐well plate format, where 100 μl of cell culture containing 1 × 10^5 luciferase reporter cells was plated per well. After the indicated time of treatment, 100 μl of luciferase assay reagent (SuperlightTM luciferase reporter Gene Assay Kit; BioAssay Systems) was added per well, and incubated for 2 min at RT, when luciferase activity was measured on a VictorTM X3 Multilabel Plate Reader. Results were presented relative to the positive control samples treated with 50 nM PMA. T‐cell activation was measured using 1 × 10^5 wild‐type Jurkat^Tat cells or PBMCs purified from healthy donors, treated as indicated. After 24 h, cells were incubated with 2.4G2 antibody to block nonspecific binding and further stained with 5 μl of anti‐human CD69 or an IgG1 isotype control antibody conjugated with PE‐Cy^Tm7. After 30‐min incubation on ice, the cells were washed twice with PBS and analyzed using a Becton Dickinson LSRII flow cytometer (BD Biosciences) to determine mean fluorescence intensity (MFI), using FlowJo software. The mean fluorescence intensity (MFI) obtained from cells stained with IgG isotype antibody control was subtracted from that from cells stained with CD69 to compensate for background (MFICD69‐MFIIgG). IL‐2 production was measured in cell culture supernatants using a human IL‐2 ELISA System (eBioscience). Jurkat^Tat clones bearing integrations of the mini‐dual HIV reporter virus, clone #11 and #131, were plated at 1 × 10^5 per well in a 96‐well plate format, treated for the indicated time, washed with 1 ml PBS, and then transferred into flow cytometry tubes, where they were fixed with freshly made 1% formaldehyde for 10 min at RT prior to analysis by flow cytometry. Results are presented as ΔMFI, where MFI obtained from parental Jurkat^Tat cells undergoing the same treated was subtracted from the MFI corresponding to each cell line; ΔMFI = (MFI compound‐treated cell line 131/11 − MFI compound‐treated WT Jurkat^Tat cells).

[3] = test system: HIV‐1 LTR (Jurkat^Tat LTR‐DsRed clone #11); assay: mdHIV LTR‐DsRed reporter assay, clone #11; assay type: cell-based; details: PMA stimulation, of eGFP expressing cells
From the text: HIV‐1 tends to integrate into actively transcribed regions of the host genome (Jordan et al, 2003; Lewinski et al, 2006; Ikeda et al, 2007). Each HIV‐1‐infected patient carries viral DNA integrated at different chromosomal locations, and as we have previously shown, the site of viral integration influences how latently infected T cells respond to different stimuli (Hashemi et al, 2016). Therefore, an ideal LRA should be capable of disrupting latency in cell models carrying integrated viral reporters at multiple different regions within the host genome. To assess this capability for the PH compounds, we used two additional previously described cell lines, designated Jurkat^Tat LTR‐DsRed clones #11, and #131, that carry a mini‐dual fluorescent HIV‐1 LTR reporter (mdHIV) at different chromosomal locations. The minivirus mdHIV has two fluorescent reporters in which DsRed expression is driven from the 5′ LTR, and eGFP is constitutively expressed from an internal EIF‐1α promoter (Fig 5A). […]
Figure 5 Effect of PH02 on HIV provirus integrated at different chromosomal locations • A The effect of PH compounds was analyzed using clonal lines bearing single‐copy integrations of the mini‐dual fluorescent HIV‐1 LTR reporter, md‐HIV, where GFP is constitutively expressed from the EIF‐1α internal promoter, and DsRed from the 5′ LTR. • B Fluorescence‐activated cell sorting (FACS) of cells bearing md‐HIV provirus indicates expression of EIF‐1α‐GFP and LTR‐dsRed. Stimulation of the md‐HIV lines generally causes a shift of the fluorescence profile from GFP^+/DsRed^− toward GFP^+/DsRed^+. • C, D Clone 11 or clone 131 was treated with the indicated concentrations of PH02 (left panels) or PH02 in combination with 10 nM PEP005 (right panels) for 24 h and cells analyzed by flow cytometry. Results presented as Δmean fluorescence intensity (ΔMFI) of DsRed expression and fold increase in DsRed expression for solo and combination treatments, respectively. Mean and SE are determined from three biological replicates (n = 3) and technical duplicates. […]

HIV reservoir = details: cited from earlier work

SMILES	Supernatant HIV-1 mRNA ([1]; 30 μM, LOD 100 copies/ml) [Copies/ml]	EC50 [2] [µM]	other results
Cn1c(C=Cc2c[nH]c3ccccc23)nc2ccccc2c1=O [PH01, 2‐[2‐(1H‐indol‐3‐yl)vinyl]‐3‐methyl‐4(3H)‐quinazolinone]	5348.04	0.141	
COc1ccccc1N(/C=C1\Sc2ccccc2C1=O)C(C)=O [PH02a, N-(2-methoxyphenyl)-N-[(3-oxo-1-benzothien-2(3H)-ylidene)methyl]acetamide]			latency‐reversing activity of PH02 analogs compared with PH02 [2]: significant reduction
COc1ccccc1N(C=O)/C=C1\Sc2ccccc2C1=O [PH02b, (2-methoxyphenyl)[(3-oxo-1-benzothien-2(3H)-ylidene)methyl]formamide]			latency‐reversing activity of PH02 analogs compared with PH02 [2]: significant reduction
Cl.Nc1ccc(-c2ccc3ccccc3n2)cc1 [PH03, 2‐(4‐aminophenyl)quinoline hydrochloride]	4714.11	1.25	
Cc1cc(I)cnc1NC(=S)NC(=O)c1ccco1 [PH04, N‐{[(5‐iodo‐3‐methyl‐2‐pyridinyl)amino]carbonothioyl}‐2‐furamide]	7134.68	2.56	
COc1cccc(-n2nnc(C(=O)Nc3ccc(C)cc3)c2C)c1 [PH05, 1‐(3‐methoxyphenyl)‐5‐methyl‐N‐(4‐methylphenyl)‐1H‐1,2,3‐triazole‐4‐carboxamide]	587.19	5.9	
CCCCCCCCCCCCCC(=O)O[C@@H]1[C@@H](C)[C@@]2(O)[C@@H](C=C(CO)C[C@]3(O)C(=O)C(C)=C[C@@H]23)[C@@H]2C(C)(C)[C@]12OC(C)=O [PMA, phorbol 12‐myristate 13‐acetate, reference compound]			Supernatant HIV-1 mRNA ([1]; 50 nM, positive control): 308929.80 Copies/ml; cells producing dsRed expression upon stimulation [3]: ~ 40%
Cc1[nH]c2ccccc2c1CCNCc1ccc(/C=C/C(=O)NO)cc1 [Panobinostat]			reduction in the HIV reservoir (HIV reservoir; 20 mg three times a week every other week for 8 weeks, ref Rasmussen et al, 2014): did not produce a reduction in the HIV reservoir
O=C(CCCCCCC(=O)Nc1ccccc1)NO [Vorinostat, suberoylanilide hydroxamic acid]			reduction in the HIV reservoir (HIV reservoir; 400 mg daily for 14 days or 3 days a week for 8 weeks, ref Archin et al, 2014, Elliott et al): did not produce a reduction in the HIV reservoir
